In the case of `Cn1c(=O)c2c(ncn2CCO)n(C)c1=O`, the solubility (mole fraction) (in ethanol, 313.9 K) is reported as 0.001, the solubility (mole fraction) (in ethanol, 321.2 K) is reported as 0.0016 and the solubility (mole fraction) (in ethanol, 325.7 K) is reported as 0.0023. For the same molecule, the solubility (mole fraction) (in ethanol, 327.4 K) was 0.0029, the solubility (mole fraction) (in ethanol, 332.5 K) was 0.004 and the solubility (mole fraction) (in ethanol, 336.8 K) was 0.0055. It also gave a solubility (mole fraction) (in ethanol, 339.1 K) of 0.0065, a solubility (mole fraction) (in ethanol, 339.7 K) of 0.0068 and a solubility (mole fraction) (in ethanol, 342.4 K) of 0.0077. The solubility (mole fraction) (in ethanol, 343.8 K) was 0.0081, the solubility (mole fraction) (in ethanol, 344.9 K) was 0.0086 and the solubility (mole fraction) (in n-octanol, 323.2 K) was 0.0026. For the same molecule, the solubility (mole fraction) (in n-octanol, 333.2 K) was 0.0046, the solubility (mole fraction) (in n-octanol, 335.2 K) was 0.006 and the solubility (mole fraction) (in n-octanol, 338.4 K) was 0.0074. The solubility (mole fraction) (in n-octanol, 343.5 K) was 0.0095, the solubility (mole fraction) (in n-octanol, 351.8 K) was 0.0149 and the solubility (mole fraction) (in n-octanol, 355.5 K) was 0.02. For the same molecule, the solubility (mole fraction) (in n-octanol, 365.2 K) was 0.0259, the solubility (mole fraction) (in water, 290.7 K) was 0.0027 and the solubility (mole fraction) (in water, 300.9 K) was 0.0039. For the same molecule, the solubility (mole fraction) (in water, 301.6 K) was 0.0041, the solubility (mole fraction) (in water, 303.4 K) was 0.0042 and the solubility (mole fraction) (in water, 304.6 K) was 0.0048. The solubility (mole fraction) (in water, 306 K) was 0.0052, the solubility (mole fraction) (in water, 312.5 K) was 0.0067 and the solubility (mole fraction) (in water, 312.8 K) was 0.0067. For the same molecule, the solubility (mole fraction) (in water, 316.2 K) was 0.0086, the solubility (mole fraction) (in water, 317.9 K) was 0.0099 and the solubility (mole fraction) (in water, 320.5 K) was 0.0119. For the same molecule, the solubility (mole fraction) (in water, 322.5 K) was 0.0133, the solubility (mole fraction) (in water, 324.9 K) was 0.0155 and the solubility (mole fraction) (in water, 330.8 K) was 0.0204. It also gave a solubility (mole fraction) (in water, 334.7 K) of 0.026, a solubility (mole fraction) (in water, 342 K) of 0.0447 and a solubility (mole fraction) (in water, 347.3 K) of 0.0623. It also gave a solubility (mole fraction) (in water, 348.4 K) of 0.0808.
`Cn1cnc2c1c(=O)[nH]c(=O)n2C` showed a solubility (mole fraction) (in ethanol, 293.15 K) of 1.53e-05, a solubility (mole fraction) (in ethanol, 298.15 K) of 2.33e-05 and a solubility (mole fraction) (in ethanol, 303.15 K) of 3.15e-05. The solubility (mole fraction) (in ethanol, 308.15 K) was 3.85e-05, the solubility (mole fraction) (in ethanol, 313.15 K) was 5.49e-05 and the solubility (mole fraction) (in ethanol, 318.15 K) was 6.34e-05. It also gave a solubility (mole fraction) (in n-octanol, 293.15 K) of 0.000214, a solubility (mole fraction) (in n-octanol, 298.15 K) of 0.000433 and a solubility (mole fraction) (in n-octanol, 308.15 K) of 0.00061. It also gave a solubility (mole fraction) (in n-octanol, 318.15 K) of 0.000824, a solubility (mole fraction) (in water, 293.15 K) of 0.001 and a solubility (mole fraction) (in water, 298.15 K) of 0.00101. The solubility (mole fraction) (in water, 303.15 K) was 0.00101, the solubility (mole fraction) (in water, 308.15 K) was 0.00103 and the solubility (mole fraction) (in water, 313.15 K) was 0.00104. It also gave a solubility (mole fraction) (in water, 318.15 K) of 0.00104.
With `Cn1c(=O)c2[nH]cnc2n(C)c1=O` the solubility (mole fraction) (in ethanol, 309.4 K) was 0.0008, the solubility (mole fraction) (in ethanol, 313 K) was 0.0013 and the solubility (mole fraction) (in ethanol, 318.6 K) was 0.002. The solubility (mole fraction) (in ethanol, 321.3 K) was 0.0027, the solubility (mole fraction) (in ethanol, 325.2 K) was 0.0036 and the solubility (mole fraction) (in ethanol, 332.8 K) was 0.005. The solubility (mole fraction) (in ethanol, 340.1 K) was 0.0083, the solubility (mole fraction) (in ethanol, 345.3 K) was 0.0123 and the solubility (mole fraction) (in n-octanol, 322.3 K) was 0.001. The solubility (mole fraction) (in n-octanol, 327.2 K) was 0.0013, the solubility (mole fraction) (in n-octanol, 330.2 K) was 0.0017 and the solubility (mole fraction) (in n-octanol, 336.7 K) was 0.0025. It also gave a solubility (mole fraction) (in n-octanol, 337.5 K) of 0.0027, a solubility (mole fraction) (in n-octanol, 343.8 K) of 0.0045 and a solubility (mole fraction) (in n-octanol, 352.1 K) of 0.0063. The solubility (mole fraction) (in n-octanol, 355.3 K) was 0.0069, the solubility (mole fraction) (in n-octanol, 364.5 K) was 0.008 and the solubility (mole fraction) (in water, 308.5 K) was 0.0004. For the same molecule, the solubility (mole fraction) (in water, 310.6 K) was 0.0005, the solubility (mole fraction) (in water, 314.5 K) was 0.0007 and the solubility (mole fraction) (in water, 316.7 K) was 0.0009. The solubility (mole fraction) (in water, 319.3 K) was 0.001, the solubility (mole fraction) (in water, 323.4 K) was 0.0012 and the solubility (mole fraction) (in water, 326.2 K) was 0.0018. For the same molecule, the solubility (mole fraction) (in water, 333.3 K) was 0.0026, the solubility (mole fraction) (in water, 337.6 K) was 0.0039 and the solubility (mole fraction) (in water, 342.6 K) was 0.0064. The solubility (mole fraction) (in water, 343.1 K) was 0.007.
